Key:
[1] = Clinical pharmacokinetic data converted to in vitro concentrations; settings: human, in vivo
From the text: Given the different potencies of the JAK inhibitors and different pharmacokinetic properties for each drug, it was sought to test each drug at a relevant range of physiological concentrations based on clinical dosing and reported pharmacokinetic data from repeat dose studies. Reported Cmax values in patient sera were converted to in vitro concentrations and adjusted for reported plasma protein binding.

[2] = tested on: phospho-STAT panel (pSTAT3/4/5), CD3+ T cells; assay: phospho-STAT induction by IL-6, MesoScale Discovery phospho-STAT panel; assay type: cell-based, human; settings: for pSTAT3 / pSTAT4 / pSTAT5: CD3+ T cells
Experimental: CD19 CAR-T, PBMC or CD3+ T cells (AllCells) were thawed and rested 0/N at 37° C. in R10 media. Cells were seeded at 700,000 cells/well and were either untreated or treated with 100 ng/ml IL6+drug at indicated concentrations for 20 minutes at 37° C. The cells were then washed with cold PBS and followed by 60 μl of Tris lysis buffer (provided by MSD) for 30 minutes on ice. Lysates were collected by spin down for 10 minutes at >10,000 rpm. 25 μl/well per condition was used for MesoScale Discovery (MSD) assay using the phospho-STAT panel (pSTAT3/4/5) from MesoScale Discovery following the manufacturer's protocol. pSTAT panel plates were blocked with 150 μl of blocker A solution for 1 hr at RT with shaking. Plates were washed three times with 1× Tris wash buffer. 25 μl of lysate samples were added per well, incubated 2 hr at room temperature or at 4° C. overnight. Plates were washed 3 times with 1× tris wash buffer and then 25 μl of detection antibody solution were added to each well and incubated for 1 hr at room temperature with shaking. Plates were washed and 1× read buffer added to each well and plates were read on the MSD instrument.

in vitro = settings: human
Experimental: 96-well plates were coated with 100 μl of KIP-1 antibody per well at 1 μg/ml in PBS and plates were incubated at 4° C. overnight. CAR-T cells were thawed and were rested in ImmunoCult expansion medium and incubated overnight at 37° C. Cells were then counted and resuspended at 2 million cells/ml and seed at 200,000 cells per well in 100 μl of expansion medium with 10 ng/ml recombinant IL2. For groups treated with KIP-1, 100 μl of expansion medium were added with 2× final drug dilutions. For CD3/CD28 treated groups, 100 μl of expansion media were added with 2× final drug dilutions containing 25 μl/ml of CD3/CD28 T cell activator from StemCell Technologies. Cells were then incubated at 37° C. After 4 days, cells were counted and diluted 1 to 8-fold in expansion media and then transferred to a 24-well plate. Cell counts were repeated at day 7 and transferred to T25 flasks. On day 11, all cells were harvested and counted.

Nalm-6 luc = assay: CAR-T cell killing assay (luciferase viability of tumor cells)
[3] = 100 ng/ml IL-6 + drug 10 uM, 20 min, MSD signal (No stim. 689, IL-6 alone 33641)
[4] = 100 ng/ml IL-6 + drug 10 uM, 20 min, MSD signal (No stim. 1964, IL-6 alone 15405)
[5] = 100 ng/ml IL-6 + drug 10 uM, 20 min, MSD signal (No stim. 9210, IL-6 alone 17743)
[6] = IL-6 + drug 0.125 uM, MSD signal (No stim. 689, IL-6 alone 33641)
[7] = IL-6 + drug 0.125 uM, MSD signal (No stim. 1964, IL-6 alone 15405)
[8] = IL-6 + drug 0.125 uM, MSD signal (No stim. 9210, IL-6 alone 17743)
[9] = IL-6 + drug 0.5 uM, MSD signal (No stim. 689, IL-6 alone 33641)
[10] = IL-6 + drug 0.5 uM, MSD signal (No stim. 1964, IL-6 alone 15405)
[11] = IL-6 + drug 0.5 uM, MSD signal (No stim. 9210, IL-6 alone 17743)
[12] = IL-6 + drug 1 uM, MSD signal (No stim. 689, IL-6 alone 33641)
[13] = IL-6 + drug 1 uM, MSD signal (No stim. 1964, IL-6 alone 15405)
[14] = IL-6 + drug 1 uM, MSD signal (No stim. 9210, IL-6 alone 17743)
[15] = IL-6 + drug 5 uM, MSD signal (No stim. 689, IL-6 alone 33641)
[16] = IL-6 + drug 5 uM, MSD signal (No stim. 1964, IL-6 alone 15405)
[17] = IL-6 + drug 5 uM, MSD signal (No stim. 9210, IL-6 alone 17743)

C[C@@H]1C[C@H]2[C@@H]3CCC4=CC(=O)C=C[C@]4(C)[C@@]3(F)[C@@H](O)C[C@]2(C)[C@@]1(O)C(=O)CO [dexamethasone]
PPB adj. in Vitro concentration [1]: 67.4 nM
clinically relevant dose level (in vitro concentration) [1]: ~70 nM
pSTAT3 [2, 3]: 25688
pSTAT4 [2, 4]: 11588
pSTAT5 [2, 5]: 14850
pSTAT3 [2, 6]: 26776
pSTAT4 [2, 7]: 14052
pSTAT5 [2, 8]: 16019
pSTAT3 [2, 9]: 28004
pSTAT4 [2, 10]: 15286
pSTAT5 [2, 11]: 18936
pSTAT3 [2, 12]: 27312
pSTAT4 [2, 13]: 15357
pSTAT5 [2, 14]: 18209
pSTAT3 [2, 15]: 24869
pSTAT4 [2, 16]: 11925
pSTAT5 [2, 17]: 15761
viability at 0 day, 50 nM (in vitro; CAR-T cells): 75%
viability at 0 day, 100 nM (in vitro; CAR-T cells): 75%
viability at 4 day, 50 nM (in vitro; CAR-T cells): 65.9%
viability at 4 day, 100 nM (in vitro; CAR-T cells): 52.8%
viability at 8 day, 50 nM (in vitro; CAR-T cells): 53.8%
viability at 8 day, 100 nM (in vitro; CAR-T cells): 56.6%
viability at 12 day, 50 nM (in vitro; CAR-T cells): 67.8%
viability at 12 day, 100 nM (in vitro; CAR-T cells): 56.5%
Mean tumor cell death (%) (Nalm-6 luc; E:T ratio 1:1, dose 10 nM): 98.09%
Mean tumor cell death (%) (Nalm-6 luc; E:T ratio 1:1, dose 100 nM): 92.30%
Mean tumor cell death (%) (Nalm-6 luc; E:T ratio 1:1, dose 250 nM): 97.15%
Mean tumor cell death (%) (Nalm-6 luc; E:T ratio 1:3, dose 10 nM): 34.66%
Mean tumor cell death (%) (Nalm-6 luc; E:T ratio 1:3, dose 100 nM): 19.94%
Mean tumor cell death (%) (Nalm-6 luc; E:T ratio 1:3, dose 250 nM): 20.38%
Mean tumor cell death (%) (Nalm-6 luc; E:T ratio 1:9, dose 10 nM): 7.08%
Mean tumor cell death (%) (Nalm-6 luc; E:T ratio 1:9, dose 100 nM): 3.02%
Mean tumor cell death (%) (Nalm-6 luc; E:T ratio 1:9, dose 250 nM): 2.48%

C[C@@H]1CCN(C(=O)CC#N)C[C@@H]1N(C)c1ncnc2[nH]ccc12 [tofacitinib]
pSTAT3 [2, 3]: 2238
pSTAT4 [2, 4]: 2159
pSTAT5 [2, 5]: 1431
pSTAT3 [2, 6]: 7733
pSTAT4 [2, 7]: 3698
pSTAT5 [2, 8]: 2424
pSTAT3 [2, 9]: 3382
pSTAT4 [2, 10]: 2503
pSTAT5 [2, 11]: 1756
pSTAT3 [2, 12]: 2301
pSTAT4 [2, 13]: 2259
pSTAT5 [2, 14]: 1528
pSTAT3 [2, 15]: 2165
pSTAT4 [2, 16]: 2033
pSTAT5 [2, 17]: 1421
effect on phosphorylated-STAT-1, STAT-3 and STAT-5 levels ([2]; IL-6 stimulation 100 ng/ml, 20 minutes, 10 μM to 0.125 μM): reduction of phosphorylated-STAT-1, STAT-3 and STAT-5 levels in a dose-responsive manner
pSTAT3 ([2]; lower dose titration, IL-6 + drug 3.125 nM, MSD signal (No stim. 123, IL-6 alone 5767)): 5917
pSTAT4 ([2]; lower dose titration, IL-6 + drug 3.125 nM, MSD signal (No stim. 281, IL-6 alone 3624)): 3525
pSTAT5 ([2]; lower dose titration, IL-6 + drug 3.125 nM, MSD signal (No stim. 324, IL-6 alone 2352)): 1810
pSTAT3 ([2]; lower dose titration, IL-6 + drug 6.25 nM, MSD signal (No stim. 123, IL-6 alone 5767)): 4586
pSTAT4 ([2]; lower dose titration, IL-6 + drug 6.25 nM, MSD signal (No stim. 281, IL-6 alone 3624)): 3455
pSTAT5 ([2]; lower dose titration, IL-6 + drug 6.25 nM, MSD signal (No stim. 324, IL-6 alone 2352)): 1808
pSTAT3 ([2]; lower dose titration, IL-6 + drug 12.5 nM, MSD signal (No stim. 123, IL-6 alone 5767)): 3998
pSTAT4 ([2]; lower dose titration, IL-6 + drug 12.5 nM, MSD signal (No stim. 281, IL-6 alone 3624)): 2304
pSTAT5 ([2]; lower dose titration, IL-6 + drug 12.5 nM, MSD signal (No stim. 324, IL-6 alone 2352)): 1187
pSTAT3 ([2]; lower dose titration, IL-6 + drug 25 nM, MSD signal (No stim. 123, IL-6 alone 5767)): 3115
pSTAT4 ([2]; lower dose titration, IL-6 + drug 25 nM, MSD signal (No stim. 281, IL-6 alone 3624)): 1982
pSTAT5 ([2]; lower dose titration, IL-6 + drug 25 nM, MSD signal (No stim. 324, IL-6 alone 2352)): 914
pSTAT3 ([2]; lower dose titration, IL-6 + drug 50 nM, MSD signal (No stim. 123, IL-6 alone 5767)): 2148
pSTAT4 ([2]; lower dose titration, IL-6 + drug 50 nM, MSD signal (No stim. 281, IL-6 alone 3624)): 1499
pSTAT5 ([2]; lower dose titration, IL-6 + drug 50 nM, MSD signal (No stim. 324, IL-6 alone 2352)): 703
pSTAT3 ([2]; lower dose titration, IL-6 + drug 100 nM, MSD signal (No stim. 123, IL-6 alone 5767)): 1006
pSTAT4 ([2]; lower dose titration, IL-6 + drug 100 nM, MSD signal (No stim. 281, IL-6 alone 3624)): 918
pSTAT5 ([2]; lower dose titration, IL-6 + drug 100 nM, MSD signal (No stim. 324, IL-6 alone 2352)): 513
viability at 0 day, 50 nM (in vitro): 75%
viability at 0 day, 100 nM (in vitro): 75%
viability at 4 day, 50 nM (in vitro): 67.7%
viability at 4 day, 100 nM (in vitro): 61.8%
viability at 8 day, 50 nM (in vitro): 74.2%
viability at 8 day, 100 nM (in vitro): 64.7%
viability at 12 day, 50 nM (in vitro): 80.1%
viability at 12 day, 100 nM (in vitro): 85.2%
Mean tumor cell death (%) (Nalm-6 luc; E:T ratio 1:1, dose 10 nM): 98.6%
Mean tumor cell death (%) (Nalm-6 luc; E:T ratio 1:1, dose 20 nM): 98.4%
Mean tumor cell death (%) (Nalm-6 luc; E:T ratio 1:1, dose 40 nM): 96.1%
Mean tumor cell death (%) (Nalm-6 luc; E:T ratio 1:1, dose 60 nM): 97.9%
Mean tumor cell death (%) (Nalm-6 luc; E:T ratio 1:1, dose 80 nM): 98%
Mean tumor cell death (%) (Nalm-6 luc; E:T ratio 1:1, dose 100 nM): 97.2%
Mean tumor cell death (%) (Nalm-6 luc; E:T ratio 1:3, dose 10 nM): 83.2%
Mean tumor cell death (%) (Nalm-6 luc; E:T ratio 1:3, dose 20 nM): 87.3%
Mean tumor cell death (%) (Nalm-6 luc; E:T ratio 1:3, dose 40 nM): 85.5%
Mean tumor cell death (%) (Nalm-6 luc; E:T ratio 1:3, dose 60 nM): 75.7%
Mean tumor cell death (%) (Nalm-6 luc; E:T ratio 1:3, dose 80 nM): 66.6%
Mean tumor cell death (%) (Nalm-6 luc; E:T ratio 1:3, dose 100 nM): 46.8%
Mean tumor cell death (%) (Nalm-6 luc; E:T ratio 1:9, dose 10 nM): 37%
Mean tumor cell death (%) (Nalm-6 luc; E:T ratio 1:9, dose 20 nM): 28.9%
Mean tumor cell death (%) (Nalm-6 luc; E:T ratio 1:9, dose 40 nM): 36%
Mean tumor cell death (%) (Nalm-6 luc; E:T ratio 1:9, dose 60 nM): 40.5%
Mean tumor cell death (%) (Nalm-6 luc; E:T ratio 1:9, dose 80 nM): 28.2%
Mean tumor cell death (%) (Nalm-6 luc; E:T ratio 1:9, dose 100 nM): 25.6%
